The source of these data is US20090299044A1 (priority 2006, published 2009).

Bridge positions count the residues as written; N and C are the ends. Square brackets hold non-standard residues; d marks the D form. Peptide text beside a SMILES is read from it. 1Nal = N[C@@H](Cc1cccc2ccccc12)C(=O)O

In one experiment the target is T1, human Kv1.3 (CHO) (Homo sapiens, UniProt P22001).
T1 construct: expressed in transfected cells; host or cells: CHO
As to the kind of experiment: cell-based.

The next experiment addresses T2, human Kv1.1 (HEK293) (Homo sapiens, UniProt Q09470).
T2 construct: expressed in transfected cells; host or cells: HEK293
As to the kind of experiment: cell-based.

T1 sequence (P22001 whole entry): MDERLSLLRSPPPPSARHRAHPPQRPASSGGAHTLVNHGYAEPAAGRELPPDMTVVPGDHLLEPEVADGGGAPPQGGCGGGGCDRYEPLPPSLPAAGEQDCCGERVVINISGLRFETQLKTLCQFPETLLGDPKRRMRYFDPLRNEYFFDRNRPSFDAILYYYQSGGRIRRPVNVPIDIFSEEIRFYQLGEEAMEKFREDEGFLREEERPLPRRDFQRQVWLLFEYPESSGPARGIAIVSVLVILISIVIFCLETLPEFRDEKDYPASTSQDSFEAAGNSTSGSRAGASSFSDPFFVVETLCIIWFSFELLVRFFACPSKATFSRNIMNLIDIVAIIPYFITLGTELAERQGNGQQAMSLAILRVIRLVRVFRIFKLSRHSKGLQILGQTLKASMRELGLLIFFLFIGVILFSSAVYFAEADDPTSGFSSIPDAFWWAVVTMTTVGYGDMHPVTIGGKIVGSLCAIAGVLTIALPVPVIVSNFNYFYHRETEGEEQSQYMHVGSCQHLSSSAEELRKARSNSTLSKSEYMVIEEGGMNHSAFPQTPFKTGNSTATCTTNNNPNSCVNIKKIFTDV
T2 sequence (Q09470 whole entry): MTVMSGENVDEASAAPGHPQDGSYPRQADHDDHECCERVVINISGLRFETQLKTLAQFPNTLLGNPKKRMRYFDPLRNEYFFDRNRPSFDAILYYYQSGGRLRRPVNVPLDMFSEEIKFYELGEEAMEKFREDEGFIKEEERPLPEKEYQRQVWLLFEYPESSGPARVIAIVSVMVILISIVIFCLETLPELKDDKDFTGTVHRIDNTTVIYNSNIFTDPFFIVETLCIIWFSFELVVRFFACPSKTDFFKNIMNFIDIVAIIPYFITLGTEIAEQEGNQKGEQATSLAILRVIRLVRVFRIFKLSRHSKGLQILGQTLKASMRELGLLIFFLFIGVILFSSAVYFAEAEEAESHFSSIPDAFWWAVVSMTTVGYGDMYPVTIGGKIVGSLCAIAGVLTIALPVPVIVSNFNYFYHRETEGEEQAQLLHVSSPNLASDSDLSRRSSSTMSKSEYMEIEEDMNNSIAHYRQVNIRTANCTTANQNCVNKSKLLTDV

By IC50 is commonly meant the midpoint of a concentration-inhibition curve. As to `CC[C@H](C)[C@@H]1NC(=O)[C@H](CCCCN)NC(=O)[C@@H](NC(=O)[C@H](CCCCN)NC(=O)[C@@H](NC(=O)[C@H](CC(N)=O)NC(=O)[C@@H](NC(=O)[C@@H](NC(=O)[C@@H](NC(=O)CN)C(C)C)[C@@H](C)CC)[C@@H](C)CC)C(C)C)CSSC[C@@H]2NC(=O)[C@H](CCCCN)NC(=O)CNC(=O)[C@H](Cc3ccccc3)NC(=O)[C@H](CCCNC(=N)N)NC(=O)[C@H](CCSC)NC(=O)CNC(=O)[C@H](CCC(=O)O)NC(=O)[C@H](CCCCN)NC(=O)[C@H](CCCCN)NC(=O)[C@@H]3CSSC[C@@H](C(=O)N[C@H](C(=O)N4CCC[C@H]4C(=O)N[C@@H](CCCCN)C(=O)O)[C@@H](C)O)NC(=O)[C@H](Cc4c[nH]cn4)NC(=O)[C@H](CSSC[C@H](NC(=O)[C@H](CCC(N)=O)NC(=O)[C@H](CCCNC(=N)N)NC(=O)[C@H](CO)NC1=O)C(=O)N[C@@H](CC(C)C)C(=O)N[C@@H](CCC(=O)O)C(=O)N1CCC[C@H]1C(=O)N3)NC(=O)[C@H](CCCCN)NC(=O)CNC(=O)[C@H](CC(N)=O)NC(=O)[C@H](CCSC)NC2=O` [A21E] (H-GVIINVKCKISRQCLEPCKKEGMRFGKCMNGKCHCTPK-OH; disulfide 8-28, 14-33, 18-35), the 50% inhibitory concentration (IC50) against human Kv1.3 (CHO) was 0.00737 nM; against human Kv1.1 (HEK293) it was less than 0.00152 nM.
Regarding `CC[C@H](C)[C@@H]1NC(=O)[C@H](CCCCN)NC(=O)[C@@H](NC(=O)[C@H](CCCCN)NC(=O)[C@@H](NC(=O)[C@H](CC(N)=O)NC(=O)[C@@H](NC(=O)[C@@H](NC(=O)[C@@H](NC(=O)CN)C(C)C)[C@@H](C)CC)[C@@H](C)CC)C(C)C)CSSC[C@@H]2NC(=O)[C@H](CCCCN)NC(=O)CNC(=O)[C@H](Cc3ccccc3)NC(=O)[C@H](CCCNC(=N)N)NC(=O)[C@H](CCSC)NC(=O)CNC(=O)[C@H](CCCNC(=N)N)NC(=O)[C@H](CCCCN)NC(=O)[C@H](CCCCN)NC(=O)[C@@H]3CSSC[C@@H](C(=O)N[C@H](C(=O)N4CCC[C@H]4C(=O)N[C@@H](CCCCN)C(=O)O)[C@@H](C)O)NC(=O)[C@H](Cc4c[nH]cn4)NC(=O)[C@H](CSSC[C@H](NC(=O)[C@H](CCC(N)=O)NC(=O)[C@H](CCCNC(=N)N)NC(=O)[C@H](CO)NC1=O)C(=O)N[C@@H](CC(C)C)C(=O)N[C@@H](CCC(=O)O)C(=O)N1CCC[C@H]1C(=O)N3)NC(=O)[C@H](CCCCN)NC(=O)CNC(=O)[C@H](CC(N)=O)NC(=O)[C@H](CCSC)NC2=O` [A21R] (H-GVIINVKCKISRQCLEPCKKRGMRFGKCMNGKCHCTPK-OH; disulfide 8-28, 14-33, 18-35), the half-maximal inhibitory concentration (IC50) is 0.0149 nM against human Kv1.3 (CHO) and 0.00261 nM against human Kv1.1 (HEK293).
The matching figures for `CC[C@H](C)[C@@H]1NC(=O)[C@H](CCCCN)NC(=O)[C@@H](NC(=O)[C@H](CCCCN)NC(=O)[C@@H](NC(=O)[C@H](CC(N)=O)NC(=O)[C@@H](NC(=O)[C@@H](NC(=O)[C@@H](NC(=O)CN)C(C)C)[C@@H](C)CC)[C@@H](C)CC)C(C)C)CSSC[C@@H]2NC(=O)[C@H](CCCCN)NC(=O)CNC(=O)[C@H](Cc3ccccc3)NC(=O)[C@H](CCCNC(=N)N)NC(=O)[C@H](CCSC)NC(=O)CNC(=O)[C@H](C)NC(=O)[C@H](CCCCN)NC(=O)[C@H](CCCCN)NC(=O)[C@@H]3CSSC[C@@H](C(=O)N[C@H](C(=O)N4CCC[C@H]4C(=O)N[C@@H](CCCCN)C(=O)O)[C@@H](C)O)NC(=O)[C@H](Cc4c[nH]cn4)NC(=O)[C@H](CSSC[C@H](NC(=O)[C@H](CCC(N)=O)NC(=O)[C@H](CCCNC(=N)N)NC(=O)[C@H](CO)NC1=O)C(=O)N[C@@H](CC(C)C)C(=O)N[C@@H](C)C(=O)N1CCC[C@H]1C(=O)N3)NC(=O)[C@H](CCCCN)NC(=O)CNC(=O)[C@H](CC(N)=O)NC(=O)[C@H](CCSC)NC2=O` [E16A] (H-GVIINVKCKISRQCLAPCKKAGMRFGKCMNGKCHCTPK-OH; disulfide 8-28, 14-33, 18-35): 0.0216 nM and 0.00687 nM.
In the case of `CC[C@H](C)[C@@H]1NC(=O)[C@H](CCCCN)NC(=O)[C@@H](NC(=O)[C@H](CCCCN)NC(=O)[C@@H](NC(=O)[C@H](CC(N)=O)NC(=O)[C@@H](NC(=O)[C@@H](NC(=O)[C@@H](NC(=O)CN)C(C)C)[C@@H](C)CC)[C@@H](C)CC)C(C)C)CSSC[C@@H]2NC(=O)[C@H](CCCCN)NC(=O)CNC(=O)[C@H](Cc3ccccc3)NC(=O)[C@H](CCCNC(=N)N)NC(=O)[C@H](CCSC)NC(=O)CNC(=O)[C@H](C)NC(=O)[C@H](CCCCN)NC(=O)[C@H](CCCCN)NC(=O)[C@@H]3CSSC[C@@H](C(=O)N[C@H](C(=O)N4CCC[C@H]4C(=O)N[C@@H](CCCCN)C(=O)O)[C@@H](C)O)NC(=O)[C@H](Cc4c[nH]cn4)NC(=O)[C@H](CSSC[C@H](NC(=O)[C@H](CCC(N)=O)NC(=O)[C@H](CCCNC(=N)N)NC(=O)[C@H](CO)NC1=O)C(=O)N[C@@H](CC(C)C)C(=O)N[C@@H](Cc1cccc4ccccc14)C(=O)N1CCC[C@H]1C(=O)N3)NC(=O)[C@H](CCCCN)NC(=O)CNC(=O)[C@H](CC(N)=O)NC(=O)[C@H](CCSC)NC2=O` [E16Nal] (H-GVIINVKCKISRQCL[1Nal]PCKKAGMRFGKCMNGKCHCTPK-OH; disulfide 8-28, 14-33, 18-35), the IC50 against human Kv1.3 (CHO) was 0.00958 nM; at human Kv1.1 (HEK293) it was less than 0.00152 nM.
Take `CC[C@H](C)[C@@H]1NC(=O)[C@H](CCCCN)NC(=O)[C@@H](NC(=O)[C@H](CCCCN)NC(=O)[C@@H](NC(=O)[C@H](CC(N)=O)NC(=O)[C@@H](NC(=O)[C@@H](NC(=O)[C@@H](NC(=O)CN)C(C)C)[C@@H](C)CC)[C@@H](C)CC)C(C)C)CSSC[C@@H]2NC(=O)[C@H](CCCCN)NC(=O)CNC(=O)[C@H](Cc3ccccc3)NC(=O)[C@H](CCCNC(=N)N)NC(=O)[C@H](CCSC)NC(=O)CNC(=O)[C@H](C)NC(=O)[C@H](CCCCN)NC(=O)[C@H](CCCCN)NC(=O)[C@@H]3CSSC[C@@H](C(=O)N[C@H](C(=O)N4CCC[C@H]4C(=O)N[C@@H](CCCCN)C(=O)O)[C@@H](C)O)NC(=O)[C@H](Cc4c[nH]cn4)NC(=O)[C@H](CSSC[C@H](NC(=O)[C@H](CCC(N)=O)NC(=O)[C@H](CCCNC(=N)N)NC(=O)[C@H](CO)NC1=O)C(=O)N[C@@H](CC(C)C)C(=O)N[C@@H](CCCNC(=N)N)C(=O)N1CCC[C@H]1C(=O)N3)NC(=O)[C@H](CCCCN)NC(=O)CNC(=O)[C@H](CC(N)=O)NC(=O)[C@H](CCSC)NC2=O` [E16R] (H-GVIINVKCKISRQCLRPCKKAGMRFGKCMNGKCHCTPK-OH; disulfide 8-28, 14-33, 18-35): the IC50 against human Kv1.3 (CHO) is 0.0104 nM; against human Kv1.1 (HEK293) it was less than 0.00152 nM.
Regarding `CC[C@H](C)[C@@H]1NC(=O)[C@H](CCCCN)NC(=O)[C@@H](NC(=O)[C@H](CCCCN)NC(=O)[C@@H](NC(=O)[C@H](CC(N)=O)NC(=O)[C@@H](NC(=O)[C@@H](NC(=O)[C@@H](NC(=O)CN)C(C)C)[C@@H](C)CC)[C@@H](C)CC)C(C)C)CSSC[C@@H]2NC(=O)[C@H](CCCCN)NC(=O)CNC(=O)[C@H](C)NC(=O)[C@H](CCCNC(=N)N)NC(=O)[C@H](CCSC)NC(=O)CNC(=O)[C@H](C)NC(=O)[C@H](CCCCN)NC(=O)[C@H](CCCCN)NC(=O)[C@@H]3CSSC[C@@H](C(=O)N[C@H](C(=O)N4CCC[C@H]4C(=O)N[C@@H](CCCCN)C(=O)O)[C@@H](C)O)NC(=O)[C@H](Cc4c[nH]cn4)NC(=O)[C@H](CSSC[C@H](NC(=O)[C@H](CCC(N)=O)NC(=O)[C@H](CCCNC(=N)N)NC(=O)[C@H](CO)NC1=O)C(=O)N[C@@H](CC(C)C)C(=O)N[C@@H](CCC(=O)O)C(=O)N1CCC[C@H]1C(=O)N3)NC(=O)[C@H](CCCCN)NC(=O)CNC(=O)[C@H](CC(N)=O)NC(=O)[C@H](CCSC)NC2=O` [F25A] (H-GVIINVKCKISRQCLEPCKKAGMRAGKCMNGKCHCTPK-OH; disulfide 8-28, 14-33, 18-35), the IC50 came out at 1.49 nM against human Kv1.3 (CHO) and 0.0473 nM at human Kv1.1 (HEK293).
For the compound `CC[C@H](C)[C@@H]1NC(=O)[C@H](CCCCN)NC(=O)[C@@H](NC(=O)[C@H](CCCCN)NC(=O)[C@@H](NC(=O)[C@H](CC(N)=O)NC(=O)[C@@H](NC(=O)[C@@H](NC(=O)[C@@H](NC(=O)CN)C(C)C)[C@@H](C)CC)[C@@H](C)CC)C(C)C)CSSC[C@@H]2NC(=O)[C@H](CCCCN)NC(=O)CNC(=O)[C@H](CCC(=O)O)NC(=O)[C@H](CCCNC(=N)N)NC(=O)[C@H](CCSC)NC(=O)CNC(=O)[C@H](C)NC(=O)[C@H](CCCCN)NC(=O)[C@H](CCCCN)NC(=O)[C@@H]3CSSC[C@@H](C(=O)N[C@H](C(=O)N4CCC[C@H]4C(=O)N[C@@H](CCCCN)C(=O)O)[C@@H](C)O)NC(=O)[C@H](Cc4c[nH]cn4)NC(=O)[C@H](CSSC[C@H](NC(=O)[C@H](CCC(N)=O)NC(=O)[C@H](CCCNC(=N)N)NC(=O)[C@H](CO)NC1=O)C(=O)N[C@@H](CC(C)C)C(=O)N[C@@H](CCC(=O)O)C(=O)N1CCC[C@H]1C(=O)N3)NC(=O)[C@H](CCCCN)NC(=O)CNC(=O)[C@H](CC(N)=O)NC(=O)[C@H](CCSC)NC2=O` [F25E] (H-GVIINVKCKISRQCLEPCKKAGMREGKCMNGKCHCTPK-OH; disulfide 8-28, 14-33, 18-35), the IC50 on human Kv1.3 (CHO) and against human Kv1.1 (HEK293) was more than 3.33 nM throughout.
Regarding `CC[C@H](C)[C@@H]1NC(=O)[C@H](CCCCN)NC(=O)[C@@H](NC(=O)[C@H](CCCCN)NC(=O)[C@@H](NC(=O)[C@H](CC(N)=O)NC(=O)[C@@H](NC(=O)[C@@H](NC(=O)[C@@H](NC(=O)CN)C(C)C)[C@@H](C)CC)[C@@H](C)CC)C(C)C)CSSC[C@@H]2NC(=O)[C@H](CCCCN)NC(=O)CNC(=O)[C@H](Cc3cccc4ccccc34)NC(=O)[C@H](CCCNC(=N)N)NC(=O)[C@H](CCSC)NC(=O)CNC(=O)[C@H](C)NC(=O)[C@H](CCCCN)NC(=O)[C@H](CCCCN)NC(=O)[C@@H]3CSSC[C@@H](C(=O)N[C@H](C(=O)N4CCC[C@H]4C(=O)N[C@@H](CCCCN)C(=O)O)[C@@H](C)O)NC(=O)[C@H](Cc4c[nH]cn4)NC(=O)[C@H](CSSC[C@H](NC(=O)[C@H](CCC(N)=O)NC(=O)[C@H](CCCNC(=N)N)NC(=O)[C@H](CO)NC1=O)C(=O)N[C@@H](CC(C)C)C(=O)N[C@@H](CCC(=O)O)C(=O)N1CCC[C@H]1C(=O)N3)NC(=O)[C@H](CCCCN)NC(=O)CNC(=O)[C@H](CC(N)=O)NC(=O)[C@H](CCSC)NC2=O` [F25Nal] (H-GVIINVKCKISRQCLEPCKKAGMR[1Nal]GKCMNGKCHCTPK-OH; disulfide 8-28, 14-33, 18-35), the figures for the IC50 against human Kv1.3 (CHO) and against human Kv1.1 (HEK293) were 0.0286 nM and 0.0517 nM, respectively.
